Drawing on PMC8146505, “Enantioselective Interactions of Anti-Infective 8-Aminoquinoline Therapeutics with Human Monoamine Oxidases A and B” (Pharmaceuticals, 2021), this text covers IC50 for five compounds.

The IC50 is the concentration that gives 50% inhibition.

The target in the first experiment is T1, recombinant human MAO-B (Homo sapiens, UniProt P27338).
T1 construct: purchased BD Biosciences (Bedford, MA, USA)
T1 sequence (P27338 1-520): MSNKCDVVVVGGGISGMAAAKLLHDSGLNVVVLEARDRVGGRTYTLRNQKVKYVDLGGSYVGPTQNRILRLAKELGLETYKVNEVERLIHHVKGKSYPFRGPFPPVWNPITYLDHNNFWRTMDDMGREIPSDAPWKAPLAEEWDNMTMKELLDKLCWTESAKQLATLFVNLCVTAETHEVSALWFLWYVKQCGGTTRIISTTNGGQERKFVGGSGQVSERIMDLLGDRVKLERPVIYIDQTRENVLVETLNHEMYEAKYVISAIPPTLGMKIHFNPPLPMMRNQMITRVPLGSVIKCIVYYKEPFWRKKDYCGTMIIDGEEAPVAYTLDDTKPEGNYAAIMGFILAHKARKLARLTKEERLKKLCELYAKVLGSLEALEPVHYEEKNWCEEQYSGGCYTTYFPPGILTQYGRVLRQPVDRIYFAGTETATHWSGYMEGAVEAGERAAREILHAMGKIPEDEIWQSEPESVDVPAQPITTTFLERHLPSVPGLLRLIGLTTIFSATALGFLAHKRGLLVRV
The experiment can be described thus: In vitro MAO inhibition assay (kynuramine oxidative deamination), IC50. In kind it is biochemical. The note with it: rhMAO-B, kynuramine 50 μM, steady-state, mean ± SD. On the procedure:
(§1) A fixed concentration of kynuramine substrate and varying concentrations of the test compounds were used to determine the IC50 values. Kynuramine concentrations for MAO-A and -B assays were 80 μM and 50 μM, respectively. The concentrations of PQ and NPC1161 enantiomers varied from 0.1 μM to 200 μM, for the rhMAO-A and -B enzyme activity inhibition. The test compounds were dissolved in DMSO, diluted in the buffer solution just before the assay, and pre-incubated with the enzyme (MAO-A (5 μg/mL) or -B (12.5 μg/mL)) for 10 min at 37 °C. […] The enzymatic reactions were initiated by the addition of the substrate (kynuramine 80 and 50 μM, for MAO-A and -B, respectively) and incubated for 20 min at 37 °C. The enzyme reactions were terminated by the addition of 78 μL of 2N NaOH to each well. The formation of 4-hydroxyquinoline (the enzyme reaction end product) was recorded fluorometrically on a SpectraMax M5 fluorescence plate reader (Molecular Devices, Sunnyvale, CA, USA) with 320 nm excitation and 380 nm emission wavelengths, using the Soft MaxPro-6 program. The inhibition of enzyme activity was calculated in terms of product formation as a percentage of corresponding controls (enzyme–substrate reaction without inhibitors). Assay controls, to define the interference of the test compounds with the fluorescence measurements, were set up simultaneously, and the enzyme or substrate was added after stopping the reaction.
(§2) The enzyme assays were performed at a steady-state fixed concentration of the substrate kynuramine (80 μM for MAO-A and 50 μM for MAO-B) and different concentrations of the test compounds (PQ and NPC1161 enantiomers). The dose–response enzyme-inhibition curves were generated using Microsoft® Excel (Figure 2), and the IC50 values were computed with XLfit®.
As for `COc1cc(N[C@@H](C)CCCN)c2ncccc2c1` [(S)-(+)-Primaquine], the IC50 was found to be 170 ± 15.3 µM.

With `COc1cc(N[C@H](C)CCCN)c2ncccc2c1` [(R)-(−)-Primaquine], the IC50 was found to be 117 ± 8.82 µM.

In the case of `COc1cc(C)c2c(Oc3cccc(C(F)(F)F)c3)c(OC)cc(NC(C)CCCN)c2n1` (stereo not drawn) [Tafenoquine, 4-N-[2,6-dimethoxy-4-methyl-5-[3-(trifluoromethyl)phenoxy]quinolin-8-yl]pentane-1,4-diamine], the concentration for half-maximal inhibition (IC50) was 0.95 ± 0.07 µM.

With `COc1ccc2c(c1)[nH]c1c(C)nccc12` [Harmine], the IC50 amounted to 53.1 ± 3.91 µM.

For `COc1cc(NC(C)CCCN)c2ncccc2c1` (racemic) [(RS)-(±)-Primaquine, Primaquine], the 50% inhibitory concentration (IC50) amounted to 107 ± 1.18 µM.

The next experiment has as its target T2, recombinant human MAO-A (Homo sapiens, UniProt P21397).
T2 construct: purchased BD Biosciences (Bedford, MA, USA)
T2 sequence (P21397 1-527): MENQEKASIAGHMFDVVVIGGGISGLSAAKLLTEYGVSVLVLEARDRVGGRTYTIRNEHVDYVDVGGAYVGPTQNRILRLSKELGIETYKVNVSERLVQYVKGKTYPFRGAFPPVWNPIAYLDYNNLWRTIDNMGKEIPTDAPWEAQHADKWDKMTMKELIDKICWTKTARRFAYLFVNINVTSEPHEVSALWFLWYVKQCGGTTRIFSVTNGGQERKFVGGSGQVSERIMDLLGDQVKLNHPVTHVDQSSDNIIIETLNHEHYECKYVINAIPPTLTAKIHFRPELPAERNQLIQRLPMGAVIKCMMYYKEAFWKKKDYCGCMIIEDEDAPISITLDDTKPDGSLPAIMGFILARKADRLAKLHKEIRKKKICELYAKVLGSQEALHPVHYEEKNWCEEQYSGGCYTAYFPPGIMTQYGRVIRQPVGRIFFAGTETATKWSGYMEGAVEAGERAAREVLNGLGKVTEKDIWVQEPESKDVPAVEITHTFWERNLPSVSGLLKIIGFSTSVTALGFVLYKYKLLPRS
Described as above. Conditions: rhMAO-A, kynuramine 80 μM, steady-state, mean ± SD. The format is biochemical. How it is done: as §1, §2
On to `COc1cc(C)c2c(Oc3cccc(C(F)(F)F)c3)c(OC)cc(NC(C)CCCN)c2n1` (stereo not drawn) [Tafenoquine, 4-N-[2,6-dimethoxy-4-methyl-5-[3-(trifluoromethyl)phenoxy]quinolin-8-yl]pentane-1,4-diamine], for which the IC50 amounted to 2.7 ± 0.14 µM.
